The target of test [1] is T1, Recombinant human NK3 (hNK3) receptor (Homo sapiens, UniProt P29371).
T1 construct: expressed in transfected cells
T1 sequence (P29371 1-465): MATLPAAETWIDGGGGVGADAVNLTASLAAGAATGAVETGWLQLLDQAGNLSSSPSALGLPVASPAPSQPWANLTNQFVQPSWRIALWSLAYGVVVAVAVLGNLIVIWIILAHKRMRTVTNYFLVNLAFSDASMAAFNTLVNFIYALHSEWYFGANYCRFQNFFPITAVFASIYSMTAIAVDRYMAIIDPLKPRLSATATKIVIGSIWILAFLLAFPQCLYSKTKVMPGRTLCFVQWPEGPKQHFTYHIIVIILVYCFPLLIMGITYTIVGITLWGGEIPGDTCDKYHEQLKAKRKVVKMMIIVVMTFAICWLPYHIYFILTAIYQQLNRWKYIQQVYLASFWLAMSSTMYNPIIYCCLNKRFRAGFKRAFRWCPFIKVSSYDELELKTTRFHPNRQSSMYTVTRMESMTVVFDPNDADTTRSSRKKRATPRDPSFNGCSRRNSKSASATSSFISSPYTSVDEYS
The test can be described thus: NK3 receptor binding, [3H]SR142801 displacement, membrane preparations. In short, it runs like this: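 Incubation ran 90 min at room temperature in 50 mM Tris-HCl pH 7.4 with 0.1% BSA, 4 mM MnCl2 and 1 μM phosphoramidon, using about 2.5 μg hNK3 membrane protein per well. Nonspecific binding was defined with 10 μM SB222200, and bound radioactivity was collected on PEI-soaked GF/C filters for scintillation counting.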

Another test addresses human NK1 receptor (Homo sapiens, UniProt P25103). In words: NK1 receptor binding, [3H]substance P displacement, CHO cell membranes.
The mark [2] stands for this setting: second value of the cell pKi NK1/NK3, hNK3 receptor, [3H]SR142801.
Where [3] appears, read: first value of the cell pKi NK1/NK3, human NK1 receptor, [3H]substance P.
Setting [4] is: second value of the cell NK1/NK3, read-out: pKi NK3 (converted).
Where [5] appears, read: first value of the cell NK1/NK3, read-out: pKi NK1 (converted).

This note sets out measurements from US8404708B2, “Dual NK1/NK3 receptor antagonists” (Hoffmann-La Roche Inc., priority 2004, dated 2013).

Where two headings read alike, the source gives them in different places.

human NK1 receptor, sequence (P25103 whole entry): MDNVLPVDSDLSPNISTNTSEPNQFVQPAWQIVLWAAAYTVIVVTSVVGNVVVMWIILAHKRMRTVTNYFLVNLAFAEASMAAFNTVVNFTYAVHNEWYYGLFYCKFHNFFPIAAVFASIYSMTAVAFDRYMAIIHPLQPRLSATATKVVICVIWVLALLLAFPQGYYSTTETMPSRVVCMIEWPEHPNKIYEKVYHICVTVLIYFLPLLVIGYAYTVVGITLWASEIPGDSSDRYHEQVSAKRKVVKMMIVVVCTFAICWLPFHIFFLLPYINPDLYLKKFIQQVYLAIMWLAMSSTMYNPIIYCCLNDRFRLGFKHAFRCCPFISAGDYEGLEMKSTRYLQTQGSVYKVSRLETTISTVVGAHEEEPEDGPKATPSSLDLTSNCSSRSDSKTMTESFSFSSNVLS

On to `CN(C)c1ccc(-c2cc(N3C[C@H](O)C[C@H]3CO)ncc2N(C)C(=O)C(C)(C)c2cc(C(F)(F)F)cc(C(F)(F)F)c2)cc1` [Example 204, (2S,4R)-2-(3,5-Bis-trifluoromethyl-phenyl)-N-[4-(4-dimethylamino-phenyl)-6-(4-hydroxy-2-hydroxymethyl-pyrrolidin-1-yl)-pyridin-3-yl]-N-methyl-isobutyramide], for which the Ki was 14.8 nM in test [1] (setting [2]) and 15.1 nM on human NK1 receptor (setting [3]).

As to `CN(C(=O)C(C)(C)c1cc(C(F)(F)F)cc(C(F)(F)F)c1)c1cnc(N2C[C@@H](O)C[C@H]2CO)cc1-c1ccccc1F` [Example 242, (2S,4S)-2-(3,5-Bis-trifluoromethyl-phenyl)-N-[4-(2-fluoro-phenyl)-6-(4-hydroxy-2-hydroxymethyl-pyrrolidin-1-yl)-pyridin-3-yl]-N-methyl-isobutyramide], the Ki in test [1] (setting [4]) is 6.92 nM; on human NK1 receptor (setting [5]), 1.32 nM.

`Cc1cc(F)ccc1-c1cc(N2CC[C@H](O)[C@H]2CO)ncc1N(C)C(=O)C(C)(C)c1cc(C(F)(F)F)cc(C(F)(F)F)c1` [Example 155, (2R,3S)-2-(3,5-Bis-trifluoromethyl-phenyl)-N-[4-(4-fluoro-2-methyl-phenyl)-6-(3-hydroxy-2-hydroxymethyl-pyrrolidin-1-yl)-pyridin-3-yl]-N-methyl-isobutyramide]: the values for the Ki (in test [1] (setting [2]); at human NK1 receptor (setting [3])) were 0.871 nM and 1.74 nM, respectively.

Regarding `CN(C(=O)C(C)(C)c1cc(C(F)(F)F)cc(C(F)(F)F)c1)c1cnc(N2CC[C@@H](O)[C@H](O)C2)cc1-c1ccccc1Cl` (racemic) [Example 188, (3RS,4RS)-2-(3,5-Bis-trifluoromethyl-phenyl)-N-[4′-(2-chloro-phenyl)-3,4-dihydroxy-3,4,5,6-tetrahydro-2H-[1,2′]bipyridinyl-5′-yl]-N-methyl-isobutyramide], the Ki is 15.5 nM in test [1] (setting [2]) and 1.32 nM at human NK1 receptor (setting [3]).

For `CN(C(=O)C(C)(C)c1cc(C(F)(F)F)cc(C(F)(F)F)c1)c1cnc(NCCO)cc1-c1ccc(Cl)cc1Cl` [Example 70, 2-(3,5-Bis-trifluoromethyl-phenyl)-N-[4-(2,4-dichloro-phenyl)-6-(2-hydroxy-ethylamino)-pyridin-3-yl]-N-methyl-isobutyramide], the Ki in test [1] (setting [2]) was 4.07 nM; on human NK1 receptor (setting [3]), 2 nM.

For `CN(C(=O)C(C)(C)c1cc(C(F)(F)F)cc(C(F)(F)F)c1)c1cnc(N2CCC[C@H]2CO)cc1-c1ccc(F)cc1` [Example 288, (S)-2-(3,5-Bis-trifluoromethyl-phenyl)-N-[4-(4-fluoro-phenyl)-6-(2-hydroxymethyl-pyrrolidin-1-yl)-pyridin-3-yl]-N-methyl-isobutyramide], the Ki in test [1] (setting [4]) is 2.51 nM; at human NK1 receptor (setting [5]) it was 2.63 nM.

For `Cc1ccccc1-c1cc(N2C[C@H](O)C[C@H]2CO)ncc1N(C)C(=O)C(C)(C)c1cc(Cl)cc(OC(F)F)c1` [Example 37, (2S,4R)-2-(3-Chloro-5-difluoromethoxy-phenyl)-N-[6-(4-hydroxy-2-hydroxymethyl-pyrrolidin-1-yl)-4-o-tolyl-pyridin-3-yl]-N-methyl-isobutyramide], the figures for the Ki (in test [1] (setting [2]); on human NK1 receptor (setting [3])) were 0.617 nM and 1.2 nM, respectively.

In the case of `CCCN(CCO)c1cc(-c2ccccc2C)c(N(C)C(=O)C(C)(C)c2cc(C(F)(F)F)cc(C(F)(F)F)c2)cn1` [Example 119, 2-(3,5-Bis-trifluoromethyl-phenyl)-N-{6-[(2-hydroxy-ethyl)-propyl-amino]-4-o-tolyl-pyridin-3-yl}-N-methyl-isobutyramide], the Ki in test [1] (setting [2]) was 2.29 nM; on human NK1 receptor (setting [3]), 3.98 nM.

Consider `CN(C(=O)C(C)(C)c1cc(C(F)(F)F)cc(C(F)(F)F)c1)c1cnc(N2CCCCC2CCO)cc1-c1ccccc1Cl` (racemic) [Example 53, (RS)-2-(3,5-Bis-trifluoromethyl-phenyl)-N-[4′-(2-chloro-phenyl)-2-(2-hydroxy-ethyl)-3,4,5,6-tetrahydro-2H-[1,2′]bipyridinyl-5′-yl]-N-methyl-isobutyramide], for which the results for the Ki (in test [1] (setting [2]); at human NK1 receptor (setting [3])) were 24.5 nM and 2.51 nM, respectively.

As to `COc1cc(Cl)cc(C(C)(C)C(=O)N(C)c2cnc(N3CCC[C@H]3CO)cc2-c2ccccc2C)c1` [Example 17, (S)-2-(3-Chloro-5-methoxy-phenyl)-N-[6-(2-hydroxymethyl-pyrrolidin-1-yl)-4-o-tolyl-pyridin-3-yl]-N-methyl-isobutyramide], the Ki in test [1] (setting [2]) was 3.16 nM; at human NK1 receptor (setting [3]), 3.89 nM.

On to `C[C@@H](CO)Nc1cc(-c2ccccc2Cl)c(N(C)C(=O)C(C)(C)c2cc(C(F)(F)F)cc(C(F)(F)F)c2)cn1` [Example 79, (S)-2-(3,5-Bis-trifluoromethyl-phenyl)-N-[4-(2-chloro-phenyl)-6-(2-hydroxy-1-methyl-ethylamino)-pyridin-3-yl]-N-methyl-isobutyramide], for which the Ki was 10.5 nM in test [1] (setting [2]) and 1.35 nM on human NK1 receptor (setting [3]).

In the case of `Cc1ccccc1-c1cc(N2C[C@@H](O)[C@@H](O)C2)ncc1N(C)C(=O)C(C)(C)c1cc(C(F)(F)F)cc(C(F)(F)F)c1` [Example 184, (3R,4S)-2-(3,5-Bis-trifluoromethyl-phenyl)-N-[6-(3,4-dihydroxy-pyrrolidin-1-yl)-4-o-tolyl-pyridin-3-yl]-N-methyl-isobutyramide], the Ki was 20 nM in test [1] (setting [2]) and 1.23 nM on human NK1 receptor (setting [3]).

`Cc1c(F)cccc1-c1cc(N2C[C@H](O)C[C@H]2CO)ncc1N(C)C(=O)C(C)(C)c1cc(C(F)(F)F)cc(C(F)(F)F)c1` [Example 228, (2S,4R)-2-(3,5-Bis-trifluoromethyl-phenyl)-N-[4-(3-fluoro-2-methyl-phenyl)-6-(4-hydroxy-2-hydroxymethyl-pyrrolidin-1-yl)-pyridin-3-yl]-N-methyl-isobutyramide]: the Ki in test [1] (setting [4]) is 1.41 nM; at human NK1 receptor (setting [5]), 1.17 nM.

For `CC(C)C[C@@H](CO)Nc1cc(-c2ccccc2Cl)c(N(C)C(=O)C(C)(C)c2cc(C(F)(F)F)cc(C(F)(F)F)c2)cn1` [Example 59, (S)-2-(3,5-Bis-trifluoromethyl-phenyl)-N-[4-(2-chloro-phenyl)-6-(1-hydroxymethyl-3-methyl-butylamino)-pyridin-3-yl]-N-methyl-isobutyramide], the figures for the Ki (in test [1] (setting [2]); on human NK1 receptor (setting [3])) were 4.9 nM and 3.24 nM, respectively.

As for `COc1cc(Cl)cc(C(C)(C)C(=O)N(C)c2cnc(N3C[C@H](O)C[C@H]3CO)cc2-c2ccccc2C)c1` [Example 18, (2S,4R)-2-(3-Chloro-5-methoxy-phenyl)-N-[6-(4-hydroxy-2-hydroxymethyl-pyrrolidin-1-yl)-4-o-tolyl-pyridin-3-yl]-N-methyl-isobutyramide], the Ki in test [1] (setting [2]) is 2.51 nM; at human NK1 receptor (setting [3]) it was 1.17 nM.

As for `CC(=O)N1CCN(c2cc(-c3ccccc3Cl)c(N(C)C(=O)C(C)(C)c3cc(C(F)(F)F)cc(C(F)(F)F)c3)cn2)CC1` [Example 61, N-[6-(4-Acetyl-piperazin-1-yl)-4-(2-chloro-phenyl)-pyridin-3-yl]-2-(3,5-bis-trifluoromethyl-phenyl)-N-methyl-isobutyramide], the values for the Ki (in test [1] (setting [2]); at human NK1 receptor (setting [3])) were 14.1 nM and 0.417 nM, respectively.

As for `CN(C(=O)C(C)(C)c1cc(F)cc(C(F)(F)F)c1)c1cnc(N2CCC[C@H]2CO)cc1-c1ccccc1Cl` [Example 4, (S)-N-[4-(2-Chloro-phenyl)-6-(2-hydroxymethyl-pyrrolidin-1-yl)-pyridin-3-yl]-2-(3-fluoro-5-trifluoromethyl-phenyl)-N-methyl-isobutyramide], the Ki was 1.55 nM in test [1] (setting [2]) and 4.47 nM at human NK1 receptor (setting [3]).

As for `CN(C(=O)C(C)(C)c1cc(C(F)(F)F)cc(C(F)(F)F)c1)c1cnc(N2C[C@H](O)C[C@H](O)C2)cc1-c1ccccc1Cl` [Example 181], the results for the Ki (in test [1] (setting [2]); at human NK1 receptor (setting [3])) were 3.39 nM and 2 nM, respectively.

For the molecule `Cc1noc(C)c1-c1cc(N2C[C@H](O)C[C@H]2CO)ncc1N(C)C(=O)C(C)(C)c1cc(C(F)(F)F)cc(C(F)(F)F)c1` [Example 230, (2S,4R)-2-(3,5-Bis-trifluoromethyl-phenyl)-N-[4-(3,5-dimethyl-isoxazol-4-yl)-6-(4-hydroxy-2-hydroxymethyl-pyrrolidin-1-yl)-pyridin-3-yl]-N-methyl-isobutyramide], the Ki in test [1] (setting [4]) is 2.69 nM; on human NK1 receptor (setting [5]) it was 0.741 nM.

With `CN(C(=O)C(C)(C)c1cc(C(F)(F)F)cc(C(F)(F)F)c1)c1cnc(N(CCO)CCO)cc1-c1ccccc1Br` [Example 134, N-[6-[Bis-(2-hydroxy-ethyl)-amino]-4-(2-bromo-phenyl)-pyridin-3-yl]-2-(3,5-bis-trifluoromethyl-phenyl)-N-methyl-isobutyramide], the Ki in test [1] (setting [2]) was 2.19 nM; on human NK1 receptor (setting [3]), 2.24 nM.

Turning to `Cc1ccccc1-c1cc(N2CC[C@@H](O)[C@H](O)C2)ncc1N(C)C(=O)C(C)(C)c1cc(C(F)(F)F)cc(C(F)(F)F)c1` (racemic) [Example 186, (3RS,4RS)-2-(3,5-Bis-trifluoromethyl-phenyl)-N-(3,4-dihydroxy-4′-o-tolyl-3,4,5,6-tetrahydro-2H-[1,2′]bipyridinyl-5′-yl)-N-methyl-isobutyramide], the Ki is 12.3 nM in test [1] (setting [2]) and 1.41 nM on human NK1 receptor (setting [3]).
